Source: PubChem BioAssay (NCI)
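How tested: cells in 96-well plates exposed to compound for 48 hours at five concentrations. GI50 = concentration required for 50% inhibition of growth. TGI marks complete inhibition of growth.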

Columns and labels:
Assay in all cases: inhibition of tumour cell growth, NCI panel, 48 h
CCRF-CEM leukemia = test system: CCRF-CEM leukemia
SR leukemia = test system: SR leukemia
SNB-75 CNS = test system: SNB-75 CNS
CAKI-1 renal = test system: CAKI-1 renal
HCT-15 colon = test system: HCT-15 colon
UO-31 renal = test system: UO-31 renal
SNB-19 CNS = test system: SNB-19 CNS
RXF 393 renal = test system: RXF 393 renal
OVCAR-3 ovarian = test system: OVCAR-3 ovarian
A549 NSCLC = test system: A549 NSCLC

Row | Compound | TGI (CCRF-CEM leukemia) [µM] | TGI (SR leukemia) [µM] | TGI (SNB-75 CNS) [µM] | TGI (CAKI-1 renal) [µM] | TGI (HCT-15 colon) [µM] | TGI (UO-31 renal) [µM] | TGI (SNB-19 CNS) [µM] | TGI (RXF 393 renal) [µM] | TGI (OVCAR-3 ovarian) [µM] | TGI (A549 NSCLC) [µM] | GI50 (CCRF-CEM leukemia) [µM] | GI50 (SR leukemia) [µM] | GI50 (SNB-75 CNS) [µM] | GI50 (CAKI-1 renal) [µM] | GI50 (HCT-15 colon) [µM] | GI50 (UO-31 renal) [µM] | GI50 (SNB-19 CNS) [µM] | GI50 (RXF 393 renal) [µM] | GI50 (OVCAR-3 ovarian) [µM] | GI50 (A549 NSCLC) [µM]
1 | CN(C)CCNC(=O)Cn1ccc(=O)c2c([N+](=O)[O-])cccc21 | > 100 | > 100 | > 100 | > 100 | > 100 | > 100 | > 100 | > 100 | > 100 | > 100 |  |  |  |  |  |  |  |  |  | 
2 | C=CC(OCC)(OCC)OCC | > 100 | 65.4 | > 100 | > 100 | > 100 | > 100 | > 100 | > 100 | > 100 | > 100 |  |  |  |  |  |  |  |  |  | 
3 | CN(C)C(=O)O[C@H]1CN[C@H](C#Cc2cc3ncnc(Nc4ccc(OCc5cccc(F)c5)c(Cl)c4)c3s2)C1 | > 25 | > 25 | > 25 | > 25 | > 25 | > 23.9 | > 25 | > 25 | 16.3 | > 25 | 3.17 | 5.86 | 9.66 | 4.06 | 14.2 | 4.04 | > 19.7 | 5.48 | 4.2 | 6.12
